According to US20230085307A1, “PYRIDAZINONE COMPOUND AND HERBICIDE” (NISSAN CHEMICAL CORPORATION, priority 2019, published 2023):

How the values were obtained:
late watergrass = experiment: Test Example 1: herbicidal activity, application before weed generation under submerged conditions (Table 16, symbol A); type: in vivo, late watergrass (Echinochloa oryzicola); settings: 320 g/ha applied herbicide
How it was run: (§1)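 Submerged Wagner pots (alluvial soil, 4 cm water) sown with weed seeds and planted with 2.5-leaf rice seedlings; emulsifiable concentrate diluted in water applied to water surface on sowing day. Held in greenhouse at 25-30 °C; injury scored 0-5 by herbicidal rate after three weeks.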

southern crabgrass [1] = experiment: Test Example 4: herbicidal effect by soil treatment (Table 19, symbol F); type: in vivo, southern crabgrass (Digitaria ciliaris); settings: amount of applied herbicide 320 g/ha
How it was run: (§2)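 Step 1: sow seeds in sterilized diluvial soil, cover ~1.5 cm. Step 2: spray diluted emulsion onto soil surface at predetermined rate. Step 3: greenhouse, 25–30° C, three weeks. Step 4: grade effect on each plant by earlier criteria.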

velvetleaf [2] = experiment: Test Example 5: herbicidal effect by foliage application, plastic box (Table 20, symbol M); type: in vivo, velvetleaf (Abutilon theophrasti); settings: foliage application, 320 g/ha, three weeks after application
How it was run: (§3)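 Foliar spray test: emulsion formulation diluted in water to a set application rate, sprayed onto 14-day-old plants raised in diluvial soil at 25° C to 30° C under glass. Both herbicidal effect and crop effect rated visually three weeks later.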

Italian ryegrass [3] = experiment: Test Example 4: herbicidal effect by soil treatment (Table 19, symbol K); type: in vivo, Italian ryegrass (Lolium multiflorum); settings: amount of applied herbicide 320 g/ha
How it was run: as §2

wild oat [4] = experiment: Test Example 4: herbicidal effect by soil treatment (Table 19, symbol I); type: in vivo, wild oat (Avena fatua); settings: amount of applied herbicide 320 g/ha
How it was run: as §2

redroot pigweed [5] = experiment: Test Example 5: herbicidal effect by foliage application, plastic box (Table 20, symbol N); type: in vivo, redroot pigweed (Amaranthus retroflexus); settings: foliage application, 320 g/ha, three weeks after application
How it was run: as §3

redroot pigweed [6] = experiment: Test Example 4: herbicidal effect by soil treatment (Table 19, symbol N); type: in vivo, redroot pigweed (Amaranthus retroflexus); settings: amount of applied herbicide 320 g/ha
How it was run: as §2

barnyard grass [7] = experiment: Test Example 4: herbicidal effect by soil treatment (Table 19, symbol H); type: in vivo, barnyard grass (Echinochloa crus-galli); settings: amount of applied herbicide 320 g/ha
How it was run: as §2

persian speedwell [8] = experiment: Test Example 4: herbicidal effect by soil treatment (Table 19, symbol R); type: in vivo, Persian speedwell (Veronica persica); settings: amount of applied herbicide 320 g/ha
How it was run: as §2

windgrass [9] = experiment: Test Example 5: herbicidal effect by foliage application, plastic box (Table 20, symbol L); type: in vivo, windgrass (Apera spica-venti); settings: foliage application, 320 g/ha, three weeks after application
How it was run: as §3

blackgrass [10] = experiment: Test Example 5: herbicidal effect by foliage application, plastic box (Table 20, symbol J); type: in vivo, blackgrass (Alopecurus myosuroides); settings: foliage application, 320 g/ha, three weeks after application
How it was run: as §3

southern crabgrass [11] = experiment: Test Example 5: herbicidal effect by foliage application, plastic box (Table 20, symbol F); type: in vivo, southern crabgrass (Digitaria ciliaris); settings: foliage application, 320 g/ha, three weeks after application
How it was run: as §3

velvetleaf [12] = experiment: Test Example 4: herbicidal effect by soil treatment (Table 19, symbol M); type: in vivo, velvetleaf (Abutilon theophrasti); settings: amount of applied herbicide 320 g/ha
How it was run: as §2

wild oat [13] = experiment: Test Example 5: herbicidal effect by foliage application, plastic box (Table 20, symbol I); type: in vivo, wild oat (Avena fatua); settings: foliage application, 320 g/ha, three weeks after application
How it was run: as §3

barnyard grass [14] = experiment: Test Example 3: herbicidal effect by foliage application, Wagner pot (Table 18, symbol H); type: in vivo, barnyard grass (Echinochloa crus-galli); settings: 320 g/ha
How it was run: (§4)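 Plants were sown in alluvial soil held under 0.1–0.5 cm standing water and grown 14 days in a greenhouse at 25–30 °C. An emulsifiable formulation, water-diluted to the set dose, was then sprayed onto the foliage, and effects were scored three weeks later using previously defined criteria.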

rice flat sedge = experiment: Test Example 3: herbicidal effect by foliage application, Wagner pot (Table 18, symbol E); type: in vivo, rice flat sedge (Cyperus iria); settings: 320 g/ha
How it was run: as §4

Chinese sprangletop = experiment: Test Example 3: herbicidal effect by foliage application, Wagner pot (Table 18, symbol D); type: in vivo, chinese sprangletop (Leptochloa chinensis); settings: 320 g/ha
How it was run: as §4

Japanese bulrush = experiment: Test Example 1: herbicidal activity, application before weed generation under submerged conditions (Table 16, symbol B); type: in vivo, Japanese bulrush (Schoenoplectus juncoides); settings: 320 g/ha applied herbicide
How it was run: as §1

oval-leafed pondweed = experiment: Test Example 1: herbicidal activity, application before weed generation under submerged conditions (Table 16, symbol C); type: in vivo, oval-leafed pondweed (Monochoria vaginalis); settings: 320 g/ha applied herbicide
How it was run: as §1

persian speedwell [15] = experiment: Test Example 5: herbicidal effect by foliage application, plastic box (Table 20, symbol R); type: in vivo, Persian speedwell (Veronica persica); settings: foliage application, 320 g/ha, three weeks after application
How it was run: as §3

lambsquarters [16] = experiment: Test Example 5: herbicidal effect by foliage application, plastic box (Table 20, symbol O); type: in vivo, lambsquarters (Chenopodium album); settings: foliage application, 320 g/ha, three weeks after application
How it was run: as §3

lambsquarters [17] = experiment: Test Example 4: herbicidal effect by soil treatment (Table 19, symbol O); type: in vivo, lambsquarters (Chenopodium album); settings: amount of applied herbicide 320 g/ha
How it was run: as §2

Italian ryegrass [18] = experiment: Test Example 5: herbicidal effect by foliage application, plastic box (Table 20, symbol K); type: in vivo, Italian ryegrass (Lolium multiflorum); settings: foliage application, 320 g/ha, three weeks after application
How it was run: as §3

chickweed [19] = experiment: Test Example 4: herbicidal effect by soil treatment (Table 19, symbol P); type: in vivo, common chickweed (Stellaria media); settings: amount of applied herbicide 320 g/ha
How it was run: as §2

green foxtail [20] = experiment: Test Example 4: herbicidal effect by soil treatment (Table 19, symbol G); type: in vivo, green foxtail (Setaria viridis); settings: amount of applied herbicide 320 g/ha
How it was run: as §2

barnyard grass [21] = experiment: Test Example 5: herbicidal effect by foliage application, plastic box (Table 20, symbol H); type: in vivo, barnyard grass (Echinochloa crus-galli); settings: foliage application, 320 g/ha, three weeks after application
How it was run: as §3

blackgrass [22] = experiment: Test Example 4: herbicidal effect by soil treatment (Table 19, symbol J); type: in vivo, blackgrass (Alopecurus myosuroides); settings: amount of applied herbicide 320 g/ha
How it was run: as §2

green foxtail [23] = experiment: Test Example 5: herbicidal effect by foliage application, plastic box (Table 20, symbol G); type: in vivo, green foxtail (Setaria viridis); settings: foliage application, 320 g/ha, three weeks after application
How it was run: as §3

chickweed [24] = experiment: Test Example 5: herbicidal effect by foliage application, plastic box (Table 20, symbol P); type: in vivo, common chickweed (Stellaria media); settings: foliage application, 320 g/ha, three weeks after application
How it was run: as §3

windgrass [25] = experiment: Test Example 4: herbicidal effect by soil treatment (Table 19, symbol L); type: in vivo, windgrass (Apera spica-venti); settings: amount of applied herbicide 320 g/ha
How it was run: as §2

Row | Structure (SMILES) | Herbicidal effect on A: late watergrass (grade 0-5) (late watergrass) | herbicidal effect rating, F: southern crabgrass (southern crabgrass [1]) | herbicidal effect grade, M: velvetleaf (velvetleaf [2]) | herbicidal effect rating, K: Italian ryegrass (Italian ryegrass [3]) | herbicidal effect rating, I: wild oat (wild oat [4]) | herbicidal effect grade, N: redroot pigweed (redroot pigweed [5]) | herbicidal effect rating, N: redroot pigweed (redroot pigweed [6]) | herbicidal effect rating, H: barnyard grass (barnyard grass [7]) | herbicidal effect rating, R: persian speedwell (persian speedwell [8]) | herbicidal effect grade, L: windgrass (windgrass [9]) | herbicidal effect grade, J: blackgrass (blackgrass [10]) | herbicidal effect grade, F: southern crabgrass (southern crabgrass [11]) | herbicidal effect rating, M: velvetleaf (velvetleaf [12]) | herbicidal effect grade, I: wild oat (wild oat [13]) | herbicidal effect on H (barnyard grass), rating 0-5 (barnyard grass [14]) | herbicidal effect on E (rice flat sedge), rating 0-5 (rice flat sedge) | herbicidal effect on D (Chinese sprangletop), rating 0-5 (Chinese sprangletop) | Herbicidal effect on B: Japanese bulrush (grade 0-5) (Japanese bulrush) | Herbicidal effect on C: oval-leafed pondweed (grade 0-5) (oval-leafed pondweed) | herbicidal effect grade, R: persian speedwell (persian speedwell [15]) | also measured
1 | CCCC(=O)Oc1c(C)nn(C)c(=O)c1-c1c(-c2ccccc2OCC)sc2ccccc12 [1-012] | 3 (Herbicidal rate of 40% or more and less than 70%) | 4 (Herbicidal rate of 70% or more and less than 90%) | 3 (Herbicidal rate of 40% or more and less than 70%) | 0 (Herbicidal rate of 5% or less (almost no effect)) | 1 (Herbicidal rate of 5% or more and less than 20%) | 3 (Herbicidal rate of 40% or more and less than 70%) | 0 (Herbicidal rate of 5% or less (almost no effect)) | 5 (Herbicidal rate of 90% or more (almost completely withered)) | 0 (Herbicidal rate of 5% or less (almost no effect)) | 4 (Herbicidal rate of 70% or more and less than 90%) | 4 (Herbicidal rate of 70% or more and less than 90%) | 5 (Herbicidal rate of 90% or more (almost completely withered)) | 0 (Herbicidal rate of 5% or less (almost no effect)) | 4 (Herbicidal rate of 70% or more and less than 90%) | 5 (Herbicidal rate of 90% or more (almost completely withered)) | 5 (Herbicidal rate of 90% or more (almost completely withered)) | 0 (Herbicidal rate of 5% or less (almost no effect)) | 1 (Herbicidal rate of 5% or more and less than 20%) | 3 (Herbicidal rate of 40% or more and less than 70%) | 5 (Herbicidal rate of 90% or more (almost completely withered)) | herbicidal effect grade, O: lambsquarters (lambsquarters [16]): 2 (Herbicidal rate of 20% or more and less than 40%); herbicidal effect rating, O: lambsquarters (lambsquarters [17]): 0 (Herbicidal rate of 5% or less (almost no effect)); herbicidal effect grade, K: Italian ryegrass (Italian ryegrass [18]): 3 (Herbicidal rate of 40% or more and less than 70%); herbicidal effect rating, P: chickweed (chickweed [19]): 0 (Herbicidal rate of 5% or less (almost no effect)); herbicidal effect rating, G: green foxtail (green foxtail [20]): 5 (Herbicidal rate of 90% or more (almost completely withered)); herbicidal effect grade, H: barnyard grass (barnyard grass [21]): 5 (Herbicidal rate of 90% or more (almost completely withered)); herbicidal effect rating, J: blackgrass (blackgrass [22]): 5 (Herbicidal rate of 90% or more (almost completely withered)); herbicidal effect grade, G: green foxtail (green foxtail [23]): 5 (Herbicidal rate of 90% or more (almost completely withered)); herbicidal effect grade, P: chickweed (chickweed [24]): 5 (Herbicidal rate of 90% or more (almost completely withered)); herbicidal effect rating, L: windgrass (windgrass [25]): 3 (Herbicidal rate of 40% or more and less than 70%)
2 | CCCC(=O)Oc1c(C)nn(C)c(=O)c1-c1c(-c2ccc(F)c(F)c2)sc2ccccc12 [1-047] | 3 (Herbicidal rate of 40% or more and less than 70%) | 0 (Herbicidal rate of 5% or less (almost no effect)) | 5 (Herbicidal rate of 90% or more (almost completely withered)) | 0 (Herbicidal rate of 5% or less (almost no effect)) | 0 (Herbicidal rate of 5% or less (almost no effect)) | 3 (Herbicidal rate of 40% or more and less than 70%) | 0 (Herbicidal rate of 5% or less (almost no effect)) | 3 (Herbicidal rate of 40% or more and less than 70%) | 5 (Herbicidal rate of 90% or more (almost completely withered)) | 0 (Herbicidal rate of 5% or less (almost no effect)) | 0 (Herbicidal rate of 5% or less (almost no effect)) | 0 (Herbicidal rate of 5% or less (almost no effect)) | 0 (Herbicidal rate of 5% or less (almost no effect)) | 0 (Herbicidal rate of 5% or less (almost no effect)) | 2 (Herbicidal rate of 20% or more and less than 40%) | 5 (Herbicidal rate of 90% or more (almost completely withered)) | 0 (Herbicidal rate of 5% or less (almost no effect)) | 0 (Herbicidal rate of 5% or less (almost no effect)) | 0 (Herbicidal rate of 5% or less (almost no effect)) | 3 (Herbicidal rate of 40% or more and less than 70%) | herbicidal effect grade, O: lambsquarters (lambsquarters [16]): 3 (Herbicidal rate of 40% or more and less than 70%); herbicidal effect rating, O: lambsquarters (lambsquarters [17]): 3 (Herbicidal rate of 40% or more and less than 70%); herbicidal effect grade, K: Italian ryegrass (Italian ryegrass [18]): 0 (Herbicidal rate of 5% or less (almost no effect)); herbicidal effect rating, P: chickweed (chickweed [19]): 5 (Herbicidal rate of 90% or more (almost completely withered)); herbicidal effect rating, G: green foxtail (green foxtail [20]): 2 (Herbicidal rate of 20% or more and less than 40%); herbicidal effect grade, H: barnyard grass (barnyard grass [21]): 0 (Herbicidal rate of 5% or less (almost no effect)); herbicidal effect rating, J: blackgrass (blackgrass [22]): 0 (Herbicidal rate of 5% or less (almost no effect)); herbicidal effect grade, G: green foxtail (green foxtail [23]): 0 (Herbicidal rate of 5% or less (almost no effect)); herbicidal effect grade, P: chickweed (chickweed [24]): 5 (Herbicidal rate of 90% or more (almost completely withered)); herbicidal effect rating, L: windgrass (windgrass [25]): 0 (Herbicidal rate of 5% or less (almost no effect))
